# Patent US7074789B2, “Kinase inhibitors” (Amgen Inc., priority 1999, dated 2006)
# What was measured:
# Assay type in all cases: biochemical
# [1] = biological target: T1, Zap-70 (Homo sapiens, UniProt P43403); assay: Kinase inhibition assay (33P transfer), Zap-70; details: read-out: Zap-1
# T1 construct: Kinases are expressed as either kinase domains or full length constructs; made in house
# T1 sequence (P43403 1-619): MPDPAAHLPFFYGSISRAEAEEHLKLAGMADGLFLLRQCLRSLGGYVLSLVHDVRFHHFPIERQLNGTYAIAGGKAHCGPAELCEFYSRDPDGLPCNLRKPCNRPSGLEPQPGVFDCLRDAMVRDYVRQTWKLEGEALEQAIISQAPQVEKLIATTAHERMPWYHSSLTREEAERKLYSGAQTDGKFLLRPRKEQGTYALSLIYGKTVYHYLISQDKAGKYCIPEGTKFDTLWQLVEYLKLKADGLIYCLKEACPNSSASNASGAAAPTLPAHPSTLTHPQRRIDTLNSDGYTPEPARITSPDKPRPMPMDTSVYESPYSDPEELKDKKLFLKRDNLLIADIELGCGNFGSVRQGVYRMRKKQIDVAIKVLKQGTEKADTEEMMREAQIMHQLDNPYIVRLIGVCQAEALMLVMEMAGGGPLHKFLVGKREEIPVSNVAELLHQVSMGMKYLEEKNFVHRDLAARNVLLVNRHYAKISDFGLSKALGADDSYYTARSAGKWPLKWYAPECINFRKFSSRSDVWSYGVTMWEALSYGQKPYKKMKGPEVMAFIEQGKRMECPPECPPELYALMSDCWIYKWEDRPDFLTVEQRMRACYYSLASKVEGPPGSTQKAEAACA
# In short: (§1)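 Kinase domains or full-length kinases, GST- or His-tagged and expressed in E. coli or baculovirus/High Five cells, transferred 33PO4 from ATP onto plate-bound poly(Glu,Tyr) 4:1 or poly(Arg,Ser) 3:1. After incubation, plates were washed with 0.5% phosphoric acid and counted by liquid scintillation.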
# [2] = biological target: T2, Lck (Homo sapiens, UniProt P06239); assay: Kinase inhibition assay (33P transfer), Lck; details: read-out: Lck-1
# T2 construct: Kinases are expressed as either kinase domains or full length constructs; made in house
# In short: as §1
# [3] = biological target: T3, EGFR (Homo sapiens, UniProt P00533); assay: Kinase inhibition assay (33P transfer), EGFR; details: Table 2, kinase inhibition class; read-out: EGFR-1
# T3 construct: Kinases are expressed as either kinase domains or full length constructs; made in house
# In short: (§2)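 Activity read as 33P incorporation from ATP into poly(Glu,Tyr) 4:1 or poly(Arg,Ser) 3:1 substrate bound to microtiter plates, measured by scintillation after acid washing. Enzymes were affinity-purified GST or polyHis fusions (kinase domain or full length) from E. coli or baculovirus; IC50 = 50% reduction in labelled phosphate.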
# [4] = biological target: T4, IGFR-1 (Homo sapiens, UniProt P08069); assay: Kinase inhibition assay, IGFR-1 (Table 2); details: Table 2, kinase inhibition class
# T4 construct: Kinases are expressed as either kinase domains or full length constructs; made in house
# [5] = biological target: T5, c-Met (Homo sapiens, UniProt P08581); assay: Kinase inhibition assay (33P transfer), c-Met; details: Table 2, kinase inhibition class; read-out: Met-1
# T5 construct: Kinases are expressed as either kinase domains or full length constructs; made in house
# In short: as §2
# [6] = biological target: T6, AKT (Homo sapiens, UniProt Q9Y243); assay: Kinase inhibition assay (33P transfer), AKT; details: Table 2, kinase inhibition class; read-out: AKT3-1
# T6 construct: Kinases are expressed as either kinase domains or full length constructs; made in house
# In short: as §1
# [7] = biological target: T7, ErbB2 (Homo sapiens, UniProt P04626); assay: Kinase inhibition assay (33P transfer), ErbB2; details: read-out: ErbB2-2
# T7 construct: Kinases are expressed as either kinase domains or full length constructs; made in house
# In short: as §2
# [8] = biological target: T8, Itk (Homo sapiens, UniProt Q08881); assay: Kinase inhibition assay (33P transfer), Itk; details: read-out: Itk-1
# T8 construct: Kinases are expressed as either kinase domains or full length constructs; made in house
# T8 sequence (Q08881 1-620): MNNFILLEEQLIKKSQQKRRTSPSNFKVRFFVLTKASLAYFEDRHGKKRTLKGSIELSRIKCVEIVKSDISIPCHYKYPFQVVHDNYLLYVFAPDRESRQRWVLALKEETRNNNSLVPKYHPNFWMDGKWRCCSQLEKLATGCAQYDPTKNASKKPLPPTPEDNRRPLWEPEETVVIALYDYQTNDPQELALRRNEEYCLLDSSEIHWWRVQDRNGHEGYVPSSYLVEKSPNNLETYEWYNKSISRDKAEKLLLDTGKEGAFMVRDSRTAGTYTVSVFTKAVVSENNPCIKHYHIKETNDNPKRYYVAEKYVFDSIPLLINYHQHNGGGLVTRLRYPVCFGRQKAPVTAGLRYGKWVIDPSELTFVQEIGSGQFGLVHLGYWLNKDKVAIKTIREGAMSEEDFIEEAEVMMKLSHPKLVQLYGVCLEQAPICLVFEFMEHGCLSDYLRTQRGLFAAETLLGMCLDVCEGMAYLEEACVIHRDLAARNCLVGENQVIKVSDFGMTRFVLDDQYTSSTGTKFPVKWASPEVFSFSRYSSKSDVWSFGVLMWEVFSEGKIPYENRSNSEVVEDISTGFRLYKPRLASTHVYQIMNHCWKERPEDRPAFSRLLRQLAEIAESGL
# In short: as §2
# [9] = biological target: T9, Kdr (Homo sapiens, UniProt P35968); assay: Kinase inhibition assay (33P transfer), Kdr; details: read-out: KDR-1
# T9 construct: Kinases are expressed as either kinase domains or full length constructs; made in house
# In short: as §1
# [10] = biological target: T10, PDGFRB (Homo sapiens, UniProt P09619); assay: Kinase inhibition assay (33P transfer), PDGFRB; details: read-out: PDGFRB-1
# T10 construct: Kinases are expressed as either kinase domains or full length constructs; made in house
# T2 sequence (P06239 whole entry, species assumed, the tested form may be a part): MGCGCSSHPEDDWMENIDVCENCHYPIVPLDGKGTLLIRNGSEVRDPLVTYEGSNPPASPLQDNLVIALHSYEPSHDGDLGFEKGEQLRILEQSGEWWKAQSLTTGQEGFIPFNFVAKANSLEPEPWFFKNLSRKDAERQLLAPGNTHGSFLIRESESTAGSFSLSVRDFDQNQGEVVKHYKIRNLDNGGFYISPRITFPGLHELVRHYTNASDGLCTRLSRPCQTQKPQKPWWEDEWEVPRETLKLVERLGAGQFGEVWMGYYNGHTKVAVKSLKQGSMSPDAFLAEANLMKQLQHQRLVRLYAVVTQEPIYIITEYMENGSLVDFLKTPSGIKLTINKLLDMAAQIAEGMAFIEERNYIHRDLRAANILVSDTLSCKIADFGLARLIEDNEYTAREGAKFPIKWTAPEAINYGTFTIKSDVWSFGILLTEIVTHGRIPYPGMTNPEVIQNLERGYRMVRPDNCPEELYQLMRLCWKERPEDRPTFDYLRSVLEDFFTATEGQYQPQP
# T3 sequence (P00533 25-1210, species assumed): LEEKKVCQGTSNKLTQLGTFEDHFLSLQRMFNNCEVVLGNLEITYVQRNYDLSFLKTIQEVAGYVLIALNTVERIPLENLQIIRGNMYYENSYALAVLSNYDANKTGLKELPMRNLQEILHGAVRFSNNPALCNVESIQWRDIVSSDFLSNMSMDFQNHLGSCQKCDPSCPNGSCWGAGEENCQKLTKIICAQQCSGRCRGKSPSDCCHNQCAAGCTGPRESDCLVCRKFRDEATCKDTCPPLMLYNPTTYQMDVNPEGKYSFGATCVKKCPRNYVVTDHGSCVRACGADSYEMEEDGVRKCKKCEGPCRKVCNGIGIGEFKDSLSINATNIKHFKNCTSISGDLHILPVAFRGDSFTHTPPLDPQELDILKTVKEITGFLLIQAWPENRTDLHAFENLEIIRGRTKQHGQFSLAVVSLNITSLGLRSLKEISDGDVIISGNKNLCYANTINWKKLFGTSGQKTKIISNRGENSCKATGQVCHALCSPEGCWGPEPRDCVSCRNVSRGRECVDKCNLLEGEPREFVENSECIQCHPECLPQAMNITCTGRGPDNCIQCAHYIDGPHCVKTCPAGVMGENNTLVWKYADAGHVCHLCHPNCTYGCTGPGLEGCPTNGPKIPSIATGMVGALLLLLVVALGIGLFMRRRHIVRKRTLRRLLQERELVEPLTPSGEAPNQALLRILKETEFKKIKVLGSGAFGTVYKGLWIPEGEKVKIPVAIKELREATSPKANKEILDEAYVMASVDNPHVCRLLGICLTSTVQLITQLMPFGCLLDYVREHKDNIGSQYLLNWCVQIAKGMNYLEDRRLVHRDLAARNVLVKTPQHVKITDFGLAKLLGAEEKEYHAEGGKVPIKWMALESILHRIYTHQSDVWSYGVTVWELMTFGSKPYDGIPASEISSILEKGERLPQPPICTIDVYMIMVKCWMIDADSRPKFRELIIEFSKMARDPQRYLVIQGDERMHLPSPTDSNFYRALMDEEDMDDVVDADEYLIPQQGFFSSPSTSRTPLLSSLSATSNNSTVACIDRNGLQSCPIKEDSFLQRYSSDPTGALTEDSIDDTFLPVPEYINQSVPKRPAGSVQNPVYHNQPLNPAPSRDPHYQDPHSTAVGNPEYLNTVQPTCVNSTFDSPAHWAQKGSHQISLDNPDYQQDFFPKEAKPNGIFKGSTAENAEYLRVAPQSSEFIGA
# T4 sequence (P08069 31-1367): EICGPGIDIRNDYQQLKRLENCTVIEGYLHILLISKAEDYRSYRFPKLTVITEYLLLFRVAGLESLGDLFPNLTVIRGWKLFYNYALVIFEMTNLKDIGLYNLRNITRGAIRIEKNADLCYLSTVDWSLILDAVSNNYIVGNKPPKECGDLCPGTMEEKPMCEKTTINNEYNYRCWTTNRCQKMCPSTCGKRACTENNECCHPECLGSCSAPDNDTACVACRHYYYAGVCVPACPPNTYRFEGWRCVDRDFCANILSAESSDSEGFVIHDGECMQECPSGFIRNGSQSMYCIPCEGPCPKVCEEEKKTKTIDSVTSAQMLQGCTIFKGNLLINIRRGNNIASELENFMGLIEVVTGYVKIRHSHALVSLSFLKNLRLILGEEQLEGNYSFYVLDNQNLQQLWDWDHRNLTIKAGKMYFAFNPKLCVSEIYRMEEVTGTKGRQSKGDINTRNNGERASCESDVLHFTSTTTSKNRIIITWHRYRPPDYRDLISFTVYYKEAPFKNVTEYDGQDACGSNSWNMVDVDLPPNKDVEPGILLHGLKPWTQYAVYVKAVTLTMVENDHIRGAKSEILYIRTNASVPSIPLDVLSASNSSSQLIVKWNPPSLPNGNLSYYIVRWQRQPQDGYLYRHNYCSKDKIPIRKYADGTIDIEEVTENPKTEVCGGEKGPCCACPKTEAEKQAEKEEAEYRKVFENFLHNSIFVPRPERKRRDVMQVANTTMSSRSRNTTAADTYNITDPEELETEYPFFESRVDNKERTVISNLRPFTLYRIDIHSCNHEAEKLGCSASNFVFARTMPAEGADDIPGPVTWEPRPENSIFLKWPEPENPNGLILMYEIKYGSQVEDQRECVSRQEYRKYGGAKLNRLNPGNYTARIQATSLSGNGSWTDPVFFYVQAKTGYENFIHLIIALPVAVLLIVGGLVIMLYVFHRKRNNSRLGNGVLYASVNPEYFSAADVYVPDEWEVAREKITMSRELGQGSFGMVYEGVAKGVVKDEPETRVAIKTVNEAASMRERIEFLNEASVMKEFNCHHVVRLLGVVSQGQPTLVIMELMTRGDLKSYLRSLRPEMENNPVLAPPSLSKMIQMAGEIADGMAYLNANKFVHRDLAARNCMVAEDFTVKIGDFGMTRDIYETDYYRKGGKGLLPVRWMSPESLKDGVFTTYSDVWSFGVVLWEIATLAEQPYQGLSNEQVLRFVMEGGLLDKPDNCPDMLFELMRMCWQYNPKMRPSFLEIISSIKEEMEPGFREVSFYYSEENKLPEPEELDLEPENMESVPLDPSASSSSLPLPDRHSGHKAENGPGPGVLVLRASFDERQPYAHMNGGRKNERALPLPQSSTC
# T5 sequence (P08581 25-1390): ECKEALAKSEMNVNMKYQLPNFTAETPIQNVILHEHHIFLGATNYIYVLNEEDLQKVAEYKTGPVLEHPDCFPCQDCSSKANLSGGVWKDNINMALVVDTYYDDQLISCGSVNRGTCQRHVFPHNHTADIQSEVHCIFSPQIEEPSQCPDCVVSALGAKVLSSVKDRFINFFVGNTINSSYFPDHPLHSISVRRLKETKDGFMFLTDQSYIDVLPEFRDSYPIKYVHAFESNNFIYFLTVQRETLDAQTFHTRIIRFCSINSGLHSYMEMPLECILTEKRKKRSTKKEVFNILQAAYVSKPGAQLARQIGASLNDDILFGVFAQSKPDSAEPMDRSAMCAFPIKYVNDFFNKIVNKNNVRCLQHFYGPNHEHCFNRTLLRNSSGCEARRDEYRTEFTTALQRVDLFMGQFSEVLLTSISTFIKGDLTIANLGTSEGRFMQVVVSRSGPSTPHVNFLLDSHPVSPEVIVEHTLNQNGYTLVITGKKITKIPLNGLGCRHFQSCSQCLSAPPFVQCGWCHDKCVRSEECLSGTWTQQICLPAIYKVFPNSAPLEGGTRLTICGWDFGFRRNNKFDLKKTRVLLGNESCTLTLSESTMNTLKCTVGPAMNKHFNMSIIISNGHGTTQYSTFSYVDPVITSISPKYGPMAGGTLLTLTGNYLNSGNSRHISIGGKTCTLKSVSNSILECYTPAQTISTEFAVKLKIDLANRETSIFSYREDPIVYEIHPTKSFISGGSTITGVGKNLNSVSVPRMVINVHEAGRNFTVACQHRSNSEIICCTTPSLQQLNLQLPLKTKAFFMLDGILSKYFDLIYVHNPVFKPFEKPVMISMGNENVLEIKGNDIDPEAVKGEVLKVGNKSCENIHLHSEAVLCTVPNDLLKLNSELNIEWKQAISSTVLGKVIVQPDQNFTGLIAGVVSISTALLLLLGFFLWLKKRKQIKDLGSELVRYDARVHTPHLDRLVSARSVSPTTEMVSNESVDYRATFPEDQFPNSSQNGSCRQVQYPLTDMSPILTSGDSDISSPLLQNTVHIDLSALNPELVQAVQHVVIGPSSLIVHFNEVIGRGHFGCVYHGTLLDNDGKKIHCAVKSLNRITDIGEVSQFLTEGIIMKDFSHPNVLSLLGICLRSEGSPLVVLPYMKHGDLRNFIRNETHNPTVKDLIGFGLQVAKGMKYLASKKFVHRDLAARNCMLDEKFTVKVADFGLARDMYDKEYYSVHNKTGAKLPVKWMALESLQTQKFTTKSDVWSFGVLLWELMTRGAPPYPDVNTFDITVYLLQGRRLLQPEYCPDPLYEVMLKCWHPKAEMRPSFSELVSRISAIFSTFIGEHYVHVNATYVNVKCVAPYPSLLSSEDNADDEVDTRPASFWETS
# T6 sequence (Q9Y243 whole entry, the tested form may be a part): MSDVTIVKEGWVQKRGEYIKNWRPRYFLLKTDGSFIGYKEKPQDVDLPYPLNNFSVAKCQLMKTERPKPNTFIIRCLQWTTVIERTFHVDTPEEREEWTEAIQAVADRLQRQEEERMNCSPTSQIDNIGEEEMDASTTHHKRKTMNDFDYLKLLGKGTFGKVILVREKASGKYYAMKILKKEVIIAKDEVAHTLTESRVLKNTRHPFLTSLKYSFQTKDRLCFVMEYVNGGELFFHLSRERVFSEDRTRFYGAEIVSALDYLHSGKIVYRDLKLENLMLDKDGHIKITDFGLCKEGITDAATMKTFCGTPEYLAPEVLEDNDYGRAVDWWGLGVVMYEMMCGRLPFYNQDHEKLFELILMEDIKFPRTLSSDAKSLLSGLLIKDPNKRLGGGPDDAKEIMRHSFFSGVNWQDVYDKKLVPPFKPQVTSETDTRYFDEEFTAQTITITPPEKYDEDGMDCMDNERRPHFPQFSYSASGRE
SMILES,IC50 [1],IC50 [2],IC50 [3],IC50 [4],IC50 [5],IC50 [6],IC50 [7],IC50 [8],IC50 [9],IC50 [10]
Fc1ccc(Nc2ncnc(Nc3ccc4cn[nH]c4c3)n2)cc1Cl [Compound 719],> 12.6 µM,> 12.6 µM,< 1.12 µM,> 12.6 µM,> 12.6 µM,> 12.6 µM,6.75 to 9.84 µM,> 12.6 µM,1.12 to 6.75 µM,> 12.6 µM
CN(c1cccc(Cl)c1)c1ncnc(Nc2cccc(Cc3nnn[nH]3)c2)n1 [Compound 720],6.09 to 8.89 µM,1.02 to 6.09 µM,< 1.02 µM,> 11.4 µM,< 1.02 µM,> 11.4 µM,< 1.02 µM,> 11.4 µM,1.02 to 6.09 µM,1.02 to 6.09 µM
CN(c1cccc(Cl)c1)c1ncnc(Nc2cccc(CNC(=O)O[C@@H]3CCOC3)c2)n1 [Compound 721],> 9.89 µM,0.879 to 5.28 µM,< 0.879 µM,7.69 to 9.89 µM,0.879 to 5.28 µM,> 9.89 µM,0.879 to 5.28 µM,> 9.89 µM,0.879 to 5.28 µM,0.879 to 5.28 µM
c1ccc(Cn2ncc3cc(Nc4ncnc(NCC5CCCCC5)n4)ccc32)cc1 [Compound 727],5.8 to 8.46 µM,> 10.9 µM,> 10.9 µM,> 10.9 µM,8.46 to 10.9 µM,> 10.9 µM,> 10.9 µM,> 10.9 µM,8.46 to 10.9 µM,> 10.9 µM
c1ccc(Cn2ncc3cc(Nc4ncnc(NCc5ccco5)n4)ccc32)cc1 [Compound 728],1.01 to 6.04 µM,> 11.3 µM,1.01 to 6.04 µM,1.01 to 6.04 µM,1.01 to 6.04 µM,> 11.3 µM,> 11.3 µM,> 11.3 µM,1.01 to 6.04 µM,> 11.3 µM
c1ccc(Cn2ncc3cc(Nc4ncnc(Nc5ccc(N6CCOCC6)cc5)n4)ccc32)cc1 [Compound 729],5.02 to 7.31 µM,0.836 to 5.02 µM,< 0.836 µM,0.836 to 5.02 µM,0.836 to 5.02 µM,7.31 to 9.4 µM,0.836 to 5.02 µM,5.02 to 7.31 µM,0.836 to 5.02 µM,0.836 to 5.02 µM
CC(=O)c1ccc(Nc2ncnc(Nc3ccc4c(cnn4Cc4ccccc4)c3)n2)cc1 [Compound 730],0.919 to 5.51 µM,5.51 to 8.04 µM,< 0.919 µM,0.919 to 5.51 µM,0.919 to 5.51 µM,5.51 to 8.04 µM,0.919 to 5.51 µM,0.919 to 5.51 µM,0.919 to 5.51 µM,0.919 to 5.51 µM
N#CCc1ccc(Nc2ncnc(Nc3ccc4c(cnn4Cc4ccccc4)c3)n2)cc1 [Compound 731],5.55 to 8.09 µM,0.925 to 5.55 µM,< 0.925 µM,0.925 to 5.55 µM,0.925 to 5.55 µM,8.09 to 10.4 µM,< 0.925 µM,0.925 to 5.55 µM,0.925 to 5.55 µM,0.925 to 5.55 µM
COc1ccc(CNc2ncnc(Nc3ccc4c(cnn4Cc4ccccc4)c3)n2)cc1OC [Compound 732],7.49 to 9.62 µM,> 9.62 µM,7.49 to 9.62 µM,7.49 to 9.62 µM,> 9.62 µM,> 9.62 µM,> 9.62 µM,> 9.62 µM,> 9.62 µM,> 9.62 µM
CN(C)CCNc1ncnc(Nc2ccc3c(cnn3Cc3ccccc3)c2)n1 [Compound 733],> 11.6 µM,> 11.6 µM,1.03 to 6.18 µM,> 11.6 µM,> 11.6 µM,> 11.6 µM,> 11.6 µM,> 11.6 µM,> 11.6 µM,> 11.6 µM
c1ccc(CCNc2ncnc(Nc3ccc4c(cnn4Cc4ccccc4)c3)n2)cc1 [Compound 734],5.69 to 8.3 µM,> 10.7 µM,> 10.7 µM,5.69 to 8.3 µM,8.3 to 10.7 µM,> 10.7 µM,5.69 to 8.3 µM,> 10.7 µM,0.949 to 5.69 µM,> 10.7 µM
c1ccc(Cn2ncc3cc(Nc4ncnc(Nc5ccc(N6CCCCC6)cc5)n4)ccc32)cc1 [Compound 735],5.04 to 7.34 µM,> 9.44 µM,< 0.839 µM,7.34 to 9.44 µM,7.34 to 9.44 µM,5.04 to 7.34 µM,0.839 to 5.04 µM,7.34 to 9.44 µM,0.839 to 5.04 µM,> 9.44 µM
CNS(=O)(=O)Cc1ccc(Nc2ncnc(Nc3ccc4c(cnn4Cc4ccccc4)c3)n2)cc1 [Compound 736],0.799 to 4.79 µM,0.799 to 4.79 µM,0.799 to 4.79 µM,0.799 to 4.79 µM,0.799 to 4.79 µM,0.799 to 4.79 µM,0.799 to 4.79 µM,0.799 to 4.79 µM,0.799 to 4.79 µM,0.799 to 4.79 µM
c1ccc(Cn2ncc3cc(Nc4ncnc(Nc5cc(-c6ccccc6)[nH]n5)n4)ccc32)cc1 [Compound 737],7.62 to 9.79 µM,5.22 to 7.62 µM,0.87 to 5.22 µM,0.87 to 5.22 µM,5.22 to 7.62 µM,7.62 to 9.79 µM,0.87 to 5.22 µM,0.87 to 5.22 µM,0.87 to 5.22 µM,5.22 to 7.62 µM
c1ccc(Cn2ncc3cc(Nc4ncnc(Nc5ncccn5)n4)ccc32)cc1 [Compound 738],> 11.4 µM,> 11.4 µM,1.01 to 6.07 µM,1.01 to 6.07 µM,> 11.4 µM,> 11.4 µM,6.07 to 8.85 µM,1.01 to 6.07 µM,> 11.4 µM,> 11.4 µM
CN(c1cccc(Cl)c1)c1ncnc(NCC2CCCO2)n1 (centres unmarked) [Compound 739],> 14.1 µM,> 14.1 µM,1.25 to 7.5 µM,> 14.1 µM,> 14.1 µM,> 14.1 µM,> 14.1 µM,> 14.1 µM,> 14.1 µM,> 14.1 µM
CN(c1cccc(Cl)c1)c1ncnc(NCCN2CCCCC2)n1 [Compound 740],> 13 µM,> 13 µM,6.92 to 10.1 µM,> 13 µM,> 13 µM,> 13 µM,> 13 µM,> 13 µM,> 13 µM,> 13 µM
COc1cccc(Nc2ncnc(N(C)c3cccc(Cl)c3)n2)c1 [Compound 741],> 13.2 µM,7.02 to 10.2 µM,< 1.17 µM,> 13.2 µM,> 13.2 µM,> 13.2 µM,1.17 to 7.02 µM,> 13.2 µM,> 13.2 µM,7.02 to 10.2 µM
CN(c1cccc(Cl)c1)c1ncnc(Nc2ccc(F)c(C(F)(F)F)c2)n1 [Compound 742],> 11.3 µM,> 11.3 µM,1.01 to 6.03 µM,> 11.3 µM,> 11.3 µM,> 11.3 µM,> 11.3 µM,> 11.3 µM,> 11.3 µM,> 11.3 µM
COc1ccc(Nc2ncnc(N(C)c3cccc(Cl)c3)n2)cc1 [Compound 743],> 13.2 µM,> 13.2 µM,< 1.17 µM,> 13.2 µM,> 13.2 µM,> 13.2 µM,> 13.2 µM,> 13.2 µM,> 13.2 µM,> 13.2 µM
